Activity calls are given as the source filed them. The rule behind the calls is not given here.
Test system: Mus musculus
Assay: Anti-VaD activity against UCCAO-induced spatial memory deficient C57BL/6J mouse model assessed as improvement in spatial learning and memory by measuring reduction in escape latency at 0.7 mg/kg, po administered for 21 days by Morris water maze test
Assay type: functional, organism-based
Conditions: not given

Q: With `COc1cc2c(cc1OC)C(=O)C(CC1CCN(Cc3ccccc3)CC1)C2` (stereo not given) as the molecule, how does the Activity read?
A: Active

Test system: not listed separately
Assay: Toxicity in Beagle dog assessed as animals exhibiting emesis at 1 mg/kg, po observed for 180 mins
Assay type: organism-based, Canis lupus familiaris
Conditions: in vivo, 3 h

Q: Which Activity does the source give for `COc1ccc(C2CNC(=O)C2)cc1OC1CCCC1` (stereo not given) [ROLIPRAM] here?
A: 100%

Target: 3',5'-cyclic-AMP phosphodiesterase 4D (Homo sapiens, UniProt Q08499)
Sequence (Q08499 whole entry, the tested form may be a part): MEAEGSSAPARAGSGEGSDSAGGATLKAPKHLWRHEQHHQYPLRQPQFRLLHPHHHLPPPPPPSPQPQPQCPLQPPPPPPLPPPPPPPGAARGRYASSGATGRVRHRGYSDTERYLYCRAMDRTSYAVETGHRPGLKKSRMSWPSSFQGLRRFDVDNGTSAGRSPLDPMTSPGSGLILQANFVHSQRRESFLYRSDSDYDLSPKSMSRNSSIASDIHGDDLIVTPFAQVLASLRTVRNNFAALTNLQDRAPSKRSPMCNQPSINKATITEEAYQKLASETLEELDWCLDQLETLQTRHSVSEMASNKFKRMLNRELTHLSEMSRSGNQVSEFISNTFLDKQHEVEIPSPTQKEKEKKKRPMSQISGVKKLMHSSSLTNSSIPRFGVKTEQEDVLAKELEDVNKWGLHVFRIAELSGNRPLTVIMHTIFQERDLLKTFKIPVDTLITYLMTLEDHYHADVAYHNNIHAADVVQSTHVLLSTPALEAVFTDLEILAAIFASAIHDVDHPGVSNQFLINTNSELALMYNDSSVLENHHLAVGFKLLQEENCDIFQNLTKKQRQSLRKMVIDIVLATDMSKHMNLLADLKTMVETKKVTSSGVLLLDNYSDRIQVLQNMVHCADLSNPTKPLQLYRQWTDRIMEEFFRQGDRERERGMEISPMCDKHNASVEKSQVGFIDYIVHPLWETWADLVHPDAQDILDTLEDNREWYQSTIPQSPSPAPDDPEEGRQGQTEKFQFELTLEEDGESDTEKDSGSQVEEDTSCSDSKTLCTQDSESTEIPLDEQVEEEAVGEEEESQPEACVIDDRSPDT
Assay: Inhibition of human PDE4D2 (86 to 413 residues) expressed in Escherichia coli BL21 codon-plus cells using [3H]cAMP as substrate incubated for 15 mins by liquid scintillation counting method
Conditions: not given

Q: With `COc1c(OCCCBr)cc2oc3cc4c(c(O)c3c(=O)c2c1CC=C(C)C)C=CC(C)(C)O4` as the molecule, how does the IC50 read?
A: > 10000 nM

Q: With `COc1c(OCCCCCC(=O)O)cc2oc3cc4c(c(O)c3c(=O)c2c1CC=C(C)C)C=CC(C)(C)O4` as the molecule, how does the IC50 read?
A: 76 nM

Q: With `CCOC(=O)CCCOc1cc2oc3cc4c(c(O)c3c(=O)c2c(CC=C(C)C)c1OC)C=CC(C)(C)O4` as the molecule, how does the IC50 read?
A: > 10000 nM

Q: With `COc1c(OCCCCCCCN2CCCC2)cc2oc3cc4c(c(O)c3c(=O)c2c1CC=C(C)C)C=CC(C)(C)O4` as the molecule, how does the IC50 read?
A: 148 nM

Q: With `COc1c(O)cc2oc3cc4c(c(O)c3c(=O)c2c1CC=C(C)C)C=CC(C)(C)O4` [MANGOSTANIN] as the molecule, how does the IC50 read?
A: 420 nM

Q: For `COc1c(OCCCCCN2CCCC2)cc2oc3cc4c(c(O)c3c(=O)c2c1CC=C(C)C)C=CC(C)(C)O4`, which IC50 is on record?
A: 200 nM

Q: With `CCOC(=O)CCCCCCCOc1cc2oc3cc4c(c(O)c3c(=O)c2c(CC=C(C)C)c1OC)C=CC(C)(C)O4` as the molecule, how does the IC50 read?
A: > 10000 nM

Q: Which IC50 does the source give for `COc1c(OCCCCCCBr)cc2oc3cc4c(c(O)c3c(=O)c2c1CC=C(C)C)C=CC(C)(C)O4` here?
A: > 10000 nM

Q: For `COc1c(OCC(=O)O)cc2oc3cc4c(c(O)c3c(=O)c2c1CC=C(C)C)C=CC(C)(C)O4`, which IC50 is on record?
A: 480 nM

Q: For `COc1c(OCCCCCCN2CCCC2)cc2oc3cc4c(c(O)c3c(=O)c2c1CC=C(C)C)C=CC(C)(C)O4`, which IC50 is on record?
A: 99 nM

Q: With `CCOC(=O)CCCCOc1cc2oc3cc4c(c(O)c3c(=O)c2c(CC=C(C)C)c1OC)C=CC(C)(C)O4` as the molecule, how does the IC50 read?
A: > 10000 nM

Q: For `COc1c(OCCCN2CCCC2)cc2oc3cc4c(c(O)c3c(=O)c2c1CC=C(C)C)C=CC(C)(C)O4`, which IC50 is on record?
A: > 1000 nM

Q: For `COc1c(OCCCCBr)cc2oc3cc4c(c(O)c3c(=O)c2c1CC=C(C)C)C=CC(C)(C)O4`, which IC50 is on record?
A: > 10000 nM

Q: With `CCOC(=O)COc1cc2oc3cc4c(c(O)c3c(=O)c2c(CC=C(C)C)c1OC)C=CC(C)(C)O4` as the molecule, how does the IC50 read?
A: > 10000 nM

Q: Which IC50 does the source give for `COc1c(OCCCCCCCC(=O)O)cc2oc3cc4c(c(O)c3c(=O)c2c1CC=C(C)C)C=CC(C)(C)O4` here?
A: 16 nM

Q: With `CCOC(=O)CCCCCCCCOc1cc2oc3cc4c(c(O)c3c(=O)c2c(CC=C(C)C)c1OC)C=CC(C)(C)O4` as the molecule, how does the IC50 read?
A: > 10000 nM

Q: For `COc1c(OCCCCN2CCCC2)cc2oc3cc4c(c(O)c3c(=O)c2c1CC=C(C)C)C=CC(C)(C)O4`, which IC50 is on record?
A: 622 nM

Q: Which IC50 does the source give for `COc1c(OCCCCCCCBr)cc2oc3cc4c(c(O)c3c(=O)c2c1CC=C(C)C)C=CC(C)(C)O4` here?
A: > 10000 nM

Q: For `COc1c(OCCCC(=O)O)cc2oc3cc4c(c(O)c3c(=O)c2c1CC=C(C)C)C=CC(C)(C)O4`, which IC50 is on record?
A: 44 nM

Q: For `COc1c(OCCCCCCCCC(=O)O)cc2oc3cc4c(c(O)c3c(=O)c2c1CC=C(C)C)C=CC(C)(C)O4`, which IC50 is on record?
A: 58 nM

Q: Which IC50 does the source give for `CCOC(=O)CCCCCCOc1cc2oc3cc4c(c(O)c3c(=O)c2c(CC=C(C)C)c1OC)C=CC(C)(C)O4` here?
A: > 10000 nM

Q: Which IC50 does the source give for `COc1c(O)cc2oc3cc(O)c(CC=C(C)C)c(O)c3c(=O)c2c1CC=C(C)C` [MANGOSTIN] here?
A: 1310 nM

Q: Which IC50 does the source give for `COc1c(OCCCCCBr)cc2oc3cc4c(c(O)c3c(=O)c2c1CC=C(C)C)C=CC(C)(C)O4` here?
A: > 10000 nM

Q: Which IC50 does the source give for `CCOC(=O)CCCCCOc1cc2oc3cc4c(c(O)c3c(=O)c2c(CC=C(C)C)c1OC)C=CC(C)(C)O4` here?
A: > 10000 nM

Q: Which IC50 does the source give for `COc1c(OCCCCC(=O)O)cc2oc3cc4c(c(O)c3c(=O)c2c1CC=C(C)C)C=CC(C)(C)O4` here?
A: 99 nM

Test system: Mus musculus
Assay: Anti-VaD activity against UCCAO-induced spatial memory deficient C57BL/6J mouse model assessed as improvement in spatial learning and memory by measuring increase in residence time on the platform at 0.7 mg/kg, po administered for 21 days by Morris water maze test
Assay type: functional, organism-based
Conditions: not given

Q: For `COc1cc2c(cc1OC)C(=O)C(CC1CCN(Cc3ccccc3)CC1)C2` (stereo not given), which Activity is on record?
A: Active

Target: Phosphodiesterase isozyme 4 (Homo sapiens, UniProt Q86V67)
Sequence (Q86V67 whole entry): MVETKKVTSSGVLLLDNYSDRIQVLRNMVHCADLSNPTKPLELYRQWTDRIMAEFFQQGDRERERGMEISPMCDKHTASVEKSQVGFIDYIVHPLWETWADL
Assay: Inhibition of PDE4 (unknown origin)
Conditions: not given

Q: Which IC50 does the source give for `C=C(C)[C@@H]1CC[C@]2(C(=O)O)CC[C@]3(C)[C@H](CC[C@@H]4[C@@]5(C)CC[C@H](O)C(C)(C)[C@@H]5CC[C@]43C)[C@@H]12` [BETULINIC ACID] here?
A: 125000 nM

Test system: Mus musculus
Assay: Anti-VaD activity against UCCAO-induced spatial memory deficient C57BL/6J mouse model assessed as improvement in spatial learning and memory by measuring increase in frequency of platform area crossings at 0.7 mg/kg, po administered for 21 days by Morris water maze test
Assay type: functional, organism-based
Conditions: not given

Q: For `COc1cc2c(cc1OC)C(=O)C(CC1CCN(Cc3ccccc3)CC1)C2` (stereo not given), which Activity is on record?
A: Active

— ChEMBL document CHEMBL4402573, “Discovery and Optimization of α-Mangostin Derivatives as Novel PDE4 Inhibitors for the Treatment of Vascular Dementia” (J Med Chem, 2020)
